Here are results for 24 compounds from patent US11718626B2, “Macrocyclic compounds for treatment of medical disorders” (Achillion Pharmaceuticals, Inc., priority 2017, dated 2023).

The conditions of data set [1]: rcm bond, toluene, 80.0 °C.
The conditions of data set [2]: rcm bond, Grubbs II, toluene, 80.0 °C.

Values joined by “and” are separate entries in the source; they are usually repeats but may differ in a detail not shown here. Equal values may be shown once. Read-outs that look alike come from different tables or passages of the source.

In turn, `CN1CCCCC=CCc2ccc(Br)nc2NC(=O)[C@@H]2C[C@]3(C[C@H]3N2C(=O)OC(C)(C)C)C1` showed a ring closure, isolated yield in data set [1] (from C=CCCCCN(C)C[C@@]12C[C@@H](C(=O)Nc3nc(Br)ccc3CC=C)N(C(=O)OC(C)(C)C)[C@@H]1C2, 16-membered ring, Grubbs II, 1.83 mM) of 93.5%.

As for `CC(=O)c1nn2c3c(cc(-c4cnc(C)nc4)cc13)CCCCC=CCc1cccc(n1)OC[C@@]13C[C@@H](C(=O)Nc4nc(Br)ccc4C)N(C(=O)C2)[C@@H]1C3`, in data set [2] (from C=CCCCCc1cc(-c2cnc(C)nc2)cc2c(C(C)=O)nn(CC(=O)N3[C@H](C(=O)Nc4nc(Br)ccc4C)C[C@@]4(COc5cccc(CC=C)n5)C[C@@H]34)c12, 1.6 mM, 16.0 h), the ring closure, yield after HPLC is 78.1%.

As for “tert-Butyl (42S,44R,E)-16-Bromo-44-fluoro-3-oxo-6-oxa-2-aza-1(2,3)-pyridina-4(2,4)-pyrrolidinacyclotridecaphan-12-ene-41-carboxylate”, the ring closure, isolated yield in data set [1] (16-membered ring, Grubbs II, 1.83 mM) was found to be 59.3%.

The compound `Cc1ncc(-c2cc3c(C#N)nn4c3c(n2)CC=CCCCC(=O)NC[C@@]23C[C@@H](C(=O)Nc5nc(Br)ccc5C)N(C(=O)C4)[C@@H]2C3)cn1` registered a ring closure, isolated yield in data set [1] (from C=CCCCC(=O)NC[C@@]12C[C@@H](C(=O)Nc3nc(Br)ccc3C)N(C(=O)Cn3nc(C#N)c4cc(-c5cnc(C)nc5)nc(CC=C)c43)[C@@H]1C2, 17-membered ring, Grubbs II, 1.27 mM, 16.0 h) of 44.8%. With `CC(=O)c1nn2c3c(nc(-c4cnc(C)nc4)cc13)CC=CCCCC(=O)NC[C@@]13C[C@@H](C(=O)Nc4nc(C(F)(F)F)ccc4C)N(C(=O)C2)[C@@H]1C3`, in data set [2] (from C=CCCCC(=O)NC[C@@]12C[C@@H](C(=O)Nc3nc(C(F)(F)F)ccc3C)N(C(=O)Cn3nc(C(C)=O)c4cc(-c5cnc(C)nc5)nc(CC=C)c43)[C@@H]1C2, 17-membered ring, 1.4 mM), the ring closure, yield after HPLC was determined as 26.9%. Consider `CC(=O)c1nn2c3c(cc(-c4cnc(C)nc4)cc13)CCCCC=CCc1cccc(c1)COC[C@@]13C[C@@H](C(=O)Nc4nc(Br)ccc4C)N(C(=O)C2)[C@@H]1C3`, for which the ring closure, isolated yield in data set [1] (from C=CCCCCc1cc(-c2cnc(C)nc2)cc2c(C(C)=O)nn(CC(=O)N3[C@H](C(=O)Nc4nc(Br)ccc4C)C[C@@]4(COCc5cccc(CC=C)c5)C[C@@H]34)c12, 21-membered ring, Grubbs II, 1.83 mM, 16.0 h) was found to be 40.9%. In turn, `CC(=O)c1nn2c3c(cc(-c4cnc(C)nc4)cc13)CC=CCCCC(=O)N(C)C[C@@]13C[C@@H](C(=O)Nc4ccc(C)c(C(F)(F)F)n4)N(C(=O)C2)[C@@H]1C3` came in with a ring closure, isolated yield in data set [1] (from C=CCCCC(=O)N(C)C[C@@]12C[C@@H](C(=O)Nc3ccc(C)c(C(F)(F)F)n3)N(C(=O)Cn3nc(C(C)=O)c4cc(-c5cnc(C)nc5)cc(CC=C)c43)[C@@H]1C2, 17-membered ring, Grubbs II, 1.24 mM) of 70.6%.

In data set [2] (from C=CCCCNC(=O)Nc1ccc2c(C(C)=O)nn(CC(=O)N3[C@H](C(=O)Nc4nc(Br)ccc4C)C[C@@]4(COCC=C)C[C@@H]34)c2c1, 20-membered ring, 1.6 mM, 16.0 h), `CC(=O)c1nn2c3cc(ccc13)NC(=O)NCCCC=CCOC[C@@]13C[C@@H](C(=O)Nc4nc(Br)ccc4C)N(C(=O)C2)[C@@H]1C3` gave a ring closure, yield after HPLC of 2.1%.

On to `CC(=O)c1nn2c3cc(c(-c4cnc(C)nc4)cc13)OCCCCC=CCOC[C@@]13C[C@@H](C(=O)Nc4nc(Br)ccc4C)N(C(=O)C2)[C@@H]1C3`, for which, in data set [2] (from C=CCCCCOc1cc2c(cc1-c1cnc(C)nc1)c(C(C)=O)nn2CC(=O)N1[C@H](C(=O)Nc2nc(Br)ccc2C)C[C@@]2(COCC=C)C[C@@H]12, 18-membered ring, 1.32 mM, 16.0 h), the ring closure, yield after HPLC was 10.6% and 7.07%. In data set [1] (from C=CCCCCCN(C)C[C@@]12C[C@@H](C(=O)Nc3nc(Br)ccc3C)N(C(=O)Cn3nc(C(C)=O)c4cc(-c5cnc(C)nc5)cc(C=C)c43)[C@@H]1C2, 17-membered ring, Zhan-1B, 4.38 mM), `CC(=O)c1nn2c3c(cc(-c4cnc(C)nc4)cc13)C=CCCCCCN(C)C[C@@]13C[C@@H](C(=O)Nc4nc(Br)ccc4C)N(C(=O)C2)[C@@H]1C3` came in with a ring closure, isolated yield of 47.4%.

As to `CC(=O)c1nn2c3c(cc(-c4cnc(C)nc4)cc13)CCC=CCCCC(=O)NC[C@@]13C[C@@H](C(=O)Nc4nc(Br)ccc4C)N(C(=O)C2)[C@@H]1C3`, the ring closure, yield after HPLC in data set [2] (from C=CCCCC(=O)NC[C@@]12C[C@@H](C(=O)Nc3nc(Br)ccc3C)N(C(=O)Cn3nc(C(C)=O)c4cc(-c5cnc(C)nc5)cc(CCC=C)c43)[C@@H]1C2, 17-membered ring, 7.0 mM, 2.5 h) was 15.8%; in data set [2] (from C=CCCCC(=O)NC[C@@]12C[C@@H](C(=O)Nc3nc(Br)ccc3C)N(C(=O)Cn3nc(C(C)=O)c4cc(-c5cnc(C)nc5)cc(CCC=C)c43)[C@@H]1C2, 18-membered ring, 7.0 mM, 2.5 h), 11.6%. In data set [1] (from C=CCOCc1ccc(Br)nc1NC(=O)[C@@H]1C[C@@]2(Cc3nc(C=C)no3)C[C@H]2N1C(=O)OC(C)(C)C, 16-membered ring, Zhan-1B, 1.75 mM, 16.0 h), `CC(C)(C)OC(=O)N1[C@H]2C[C@@]3(Cc4nc(no4)C=CCOCc4ccc(Br)nc4NC2=O)C[C@@H]13` yielded a ring closure, isolated yield of 56.2%. Compound `CC(C)(C)OC(=O)N1[C@H]2C[C@@]3(CNC(=O)C(F)(F)CC=CCOCc4ccc(Br)nc4NC2=O)C[C@@H]13` came in with a ring closure, isolated yield in data set [1] (from C=CCOCc1ccc(Br)nc1NC(=O)[C@@H]1C[C@@]2(CNC(=O)C(F)(F)CC=C)C[C@H]2N1C(=O)OC(C)(C)C, 17-membered ring, Grubbs II, 2.0 mM) of 96.5%. Take `CC(=O)c1nn2c3c(cc(-c4cnc(C)nc4)cc13)CCCCCCC=CCOC[C@@]13C[C@@H](C(=O)Nc4nc(Br)ccc4C)N(C(=O)C2)[C@@H]1C3`: the ring closure, isolated yield in data set [1] (from C=CCCCCCCc1cc(-c2cnc(C)nc2)cc2c(C(C)=O)nn(CC(=O)N3[C@H](C(=O)Nc4nc(Br)ccc4C)C[C@@]4(COCC=C)C[C@@H]34)c12, 19-membered ring, Grubbs II, 3.0 mM, 4.0 h) is 88.7%.

With `CC(=O)c1nn2c3cc(ccc13)NC(=O)OCCCC=CCOC[C@@]13C[C@@H](C(=O)Nc4nc(Br)ccc4C)N(C(=O)C2)[C@@H]1C3`, the ring closure, yield after HPLC in data set [2] (from C=CCCCOC(=O)Nc1ccc2c(C(C)=O)nn(CC(=O)N3[C@H](C(=O)Nc4nc(Br)ccc4C)C[C@@]4(COCC=C)C[C@@H]34)c2c1, 20-membered ring, 2.0 mM, 2.0 h) stood at 68.5%. In data set [1] (from C=CCOCc1ccc(Br)nc1NC(=O)[C@@H]1C[C@@]2(CNC(=O)C(C)(C)CC=C)C[C@H]2N1C(=O)OC(C)(C)C, 17-membered ring, Grubbs II, 3.14 mM, 16.0 h), `CC(C)(C)OC(=O)N1[C@H]2C[C@@]3(CNC(=O)C(C)(C)CC=CCOCc4ccc(Br)nc4NC2=O)C[C@@H]13` gave a ring closure, isolated yield of 83.1%. In data set [1] (from C=CCCC[C@@]12C[C@@H](C(=O)Nc3nc(Br)ccc3COCC=C)N(C(=O)OC(C)(C)C)[C@@H]1C2, 15-membered ring, Grubbs II, 1.87 mM), `CC(C)(C)OC(=O)N1[C@H]2C[C@@]3(CCCC=CCOCc4ccc(Br)nc4NC2=O)C[C@@H]13` yielded a ring closure, isolated yield of 70.4%. Regarding `CC(=O)c1nn2c3cc(ccc13)C(=O)NCCCCC=CCOC[C@@]13C[C@@H](C(=O)Nc4nc(Br)ccc4C)N(C(=O)C2)[C@@H]1C3`, the ring closure, isolated yield in data set [1] (from C=CCCCCNC(=O)c1ccc2c(C(C)=O)nn(CC(=O)N3[C@H](C(=O)Nc4nc(Br)ccc4C)C[C@@]4(COCC=C)C[C@@H]34)c2c1, 20-membered ring, Grubbs II, 1.44 mM, 16.0 h) worked out at 45.6%. Regarding `CC(=O)c1nn2c3cc(ccc13)NC(=O)OCCCCC=CCOC[C@@]13C[C@@H](C(=O)Nc4nc(Br)ccc4C)N(C(=O)C2)[C@@H]1C3`, the ring closure, isolated yield in data set [1] (from C=CCCCCOC(=O)Nc1ccc2c(C(C)=O)nn(CC(=O)N3[C@H](C(=O)Nc4nc(Br)ccc4C)C[C@@]4(COCC=C)C[C@@H]34)c2c1, 21-membered ring, Grubbs II, 1.7 mM, 16.0 h) was 51.2%.

`CC(=O)c1nn2c3c(cc(-c4cnc(C)nc4)cc13)CCCCC=CCC=C[C@@]13C[C@@H](C(=O)Nc4nc(Br)ccc4C)N(C(=O)C2)[C@@H]1C3` yielded a ring closure, isolated yield in data set [1] (from C=CCC=C[C@@]12C[C@@H](C(=O)Nc3nc(Br)ccc3C)N(C(=O)Cn3nc(C(C)=O)c4cc(-c5cnc(C)nc5)cc(CCCCC=C)c43)[C@@H]1C2, 17-membered ring, Grubbs II, 2.27 mM, 16.0 h) of 21.8%. For the compound “(41R,43S,45S,E)-13-Acetyl-N-(6-bromo-3-methylpyridin-2-yl)-3,14-dioxo-11H-6,15-dioxa-42,13-diaza-1(1,6)-indazola-4(2,5)-bicyclo[3.1.0]hexanacyclopentadecaphan-8-ene-43-carboxamide”, the ring closure, isolated yield in data set [1] (20-membered ring, Grubbs II, 1.48 mM) is 4.1%.

With “tert-Butyl (41R,43S,45R,E)-16-Bromo-8,8-difluoro-3,7-dioxo-13-oxa-42,2,6-triaza-1(2,3)-pyridina-4(3,5)-bicyclo[3.1.0]hexanacyclotetradecaphan-10-ene-42-carboxylate”, the ring closure, isolated yield in data set [1] (17-membered ring, Grubbs II, 2.0 mM) worked out at 96.5%. The compound `CC(=O)c1nn2c3c(cc(-c4cnc(C)nc4)cc13)CCCCCCC=Cc1cn(nn1)C[C@@]13C[C@@H](C(=O)Nc4nc(Br)ccc4C)N(C(=O)C2)[C@@H]1C3` returned a ring closure, isolated yield in data set [1] (from C=CCCCCCCc1cc(-c2cnc(C)nc2)cc2c(C(C)=O)nn(CC(=O)N3[C@H](C(=O)Nc4nc(Br)ccc4C)C[C@@]4(Cn5cc(C=C)nn5)C[C@@H]34)c12, 20-membered ring, Grubbs II, 2.6 mM, 16.0 h) of 59.4%. The ring closure, yield after HPLC in data set [2] (from C=CCCCCCCc1cc(-c2cnc(C)nc2)cc2c(C(C)=O)nn(CC(=O)N3[C@H](C(=O)Nc4nc(Br)ccc4C)C[C@@]4(Cn5cc(C=C)nn5)C[C@@H]34)c12, 20-membered ring, 2.6 mM, 16.0 h) worked out at 3.97%; in data set [2] (from C=CCCCCCCc1cc(-c2cnc(C)nc2)cc2c(C(C)=O)nn(CC(=O)N3[C@H](C(=O)Nc4nc(Br)ccc4C)C[C@@]4(Cn5cc(C=C)nn5)C[C@@H]34)c12, 2.6 mM, 16.0 h), 6.93%.

Regarding `CN1CCCCCC=C[C@@]23C[C@@H](C(=O)Nc4nc(Br)ccc4C1)N(C(=O)OC(C)(C)C)[C@@H]2C3`, in data set [1] (from C=CCCCCCN(C)Cc1ccc(Br)nc1NC(=O)[C@@H]1C[C@@]2(C=C)C[C@H]2N1C(=O)OC(C)(C)C, 16-membered ring, Grubbs II, 1.78 mM, 16.0 h), the ring closure, isolated yield amounted to 72.4%.
